Our source for the binding heat detected and binding detectable values is article PMC13347698 (Analytical Chemistry, 2026).

The target in test [1] is dimeric C145A 3CL^pro single mutant (Severe acute respiratory syndrome coronavirus 2, UniProt P0DTD1, C3408A). The test is classed as binding, SARS-CoV-2.
Test [2] deals with monomeric E290A/R298A 3CL^pro double mutant (Severe acute respiratory syndrome coronavirus 2, UniProt P0DTD1, E3553A/R3561A). The test is classed as binding, SARS-CoV-2.

With `CC(C)(C)c1ccc(N(C(=O)c2c[nH]cn2)[C@@H](C(=O)NC2CCCCC2)c2cccnc2)cc1` [X77], the binding heat detected result in test [1] is reported as “No measurable heat was detected”. In addition, in test [2], the binding detectable result is recorded as “not”.
